Measured values published in the supplement of paper PMC10307832.

Columns and labels:
Experiment in all cases: relative viability (nuclei count vs DMSO), 5 days (fraction); higher = more cells survive
[1] = compound: CCc1c2c(nc3ccc(OC(=O)N4CCC(N5CCCCC5)CC4)cc13)-c1cc3c(c(=O)n1C2)COC(=O)[C@]3(O)CC [Irinotecan]
Procedure, shortened: (§1)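 Lung cancer cell lines received five library-drug doses (not always all listed) spaced by √10, pinned on vehicle-anchored 1536-well plates after an overnight stay at 37 °C. Five days later, with no medium change, nuclei were Hoechst-stained, imaged at 4× and counted with MetaXpress. Viability is treated-well nuclei relative to vehicle-well nuclei, as a median across plates. Passing plates had control CV below 25% and at least one doubling.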

[2] = compound: Cn1cc(-c2cnc3ccc4ccc(CS(=O)(=O)NCc5ccccn5)cc4c(=O)c3c2)cn1 [MK-8033]
Procedure, shortened: as §1

[3] = compound: CC[C@@H](C)CNCC(=O)N1CCC2=C([C@@H]1COC3=CC=CC(=C3)C)C=CS2 [RU-SKI 43]
Procedure, shortened: as §1

Cell Line	relative viability ([1]; 0.6325 µM)	relative viability ([1]; 2 µM)	relative viability ([1]; 6.325 µM)	relative viability ([1]; 20 µM)	relative viability ([2]; 0.02 µM)	relative viability ([2]; 0.06325 µM)	relative viability ([2]; 0.2 µM)	relative viability ([2]; 0.6325 µM)	relative viability ([2]; 2 µM)	relative viability ([3]; 0.1 µM)	relative viability ([3]; 0.3162 µM)	relative viability ([3]; 1 µM)	relative viability ([3]; 3.162 µM)	relative viability ([3]; 10 µM)
HOP-62	0.558	0.714	0.194	0.2	1	0.976	0.98	0.989	0.973	1.05	0.986	1.11	1.09	1.09
IA-LM	0.616	0.419	0.208	0.0921	0.886	0.933	0.933	0.93	0.952	1.1	1.02	1.15	1.07	0.98
LC-2-ad	0.47	0.492	0.299	0.191	0.953	0.938	0.936	1	0.927	0.967	1.02	1.16	0.963	0.932
LCLC-97TM1	0.39	0.454	0.173	0.167	1.05	0.927	0.795	0.999	0.975	1.13	0.972	1.05	0.973	0.838
LCLC-103H	0.945	0.929	0.451	0.423	0.99	1	0.896	0.997	1.06	1.05	1.07	1.18	1.06	1.03
LK-2	1.04	0.956	0.486	0.282	0.992	0.885	0.92	1.01	1.09	1.09	1.13	1.31	1.22	1.06
LOU-NH91	0.898	0.971	0.456	0.385	0.979	0.712	0.941	0.937	0.975	0.971	0.918	1.03	0.939	0.932
LU99A	0.38	0.355	0.215	0.212	1.05	0.897	0.817	0.947	0.926	0.93	1.08	0.95	0.966	0.851
LXF-289	0.892	0.965	0.659	0.265	1.02	0.983	0.955	1.16	0.995	1.05	1.08	1.02	1.1	0.999
NCI-H23	0.693	0.73	0.332	0.234	0.977	0.897	0.893	1.06	0.86	1.03	1.18	1.1	1.1	0.926
NCI-H322M	0.8	0.754	0.503	0.385	0.952	0.766	0.878	0.957	0.929	0.985	0.945	1.05	0.939	0.978
NCI-H358	0.744	0.66	0.323	0.169	0.961	0.751	0.917	0.958	0.806	0.94	1.19	0.922	0.97	0.898
NCI-H441	0.567	0.614	0.303	0.266	1.01	0.903	1.04	1.02	1.08	1.12	1.16	1.08	1.14	0.956
NCI-H460	0.74	0.556	0.142	0.0536	0.992	0.945	0.96	1.06	1.03	1.04	1.06	1.03	1.01	0.967
NCI-H520	0.898	0.726	0.365	0.325	1.06	0.98	1.01	1.03	0.928	1.07	1.08	1.09	1.06	0.938
NCI-H522	0.694	0.844	0.52	0.639	0.983	0.793	0.954	1.05	0.959	1.02	1.05	1.16	0.982	1.17
NCI-H596	0.889	1.07	0.914	0.643	0.918	0.838	0.971	0.983	1.04	0.945	0.965	1.01	0.963	0.983
NCI-H647	0.866	0.815	0.191	0.142	0.919	0.943	0.89	0.935	0.874	1.04	0.987	1.13	1.07	0.996
NCI-H650	0.648	0.794	0.259	0.241	0.985	0.977	1.06	0.954	0.906	0.968	0.9	1.13	0.758	1.05
NCI-H661	1.05	0.838	0.52	0.454	0.994	0.849	1.01	1.01	0.993	0.92	1.05	1.06	0.99	0.943
NCI-H727	0.516	0.565	0.531	0.54	0.877	0.691	0.911	1.13	0.97	0.838	0.989	1.08	1.1	0.811
